Test results as given in patent publication US9334264B2, “NAMPT inhibitors” (AbbVie Inc., priority 2012, dated 2016).

What was measured:
NAMPT = NAMPT (Homo sapiens, UniProt P43490); assay: Time-Resolved Fluorescence Resonance Energy Transfer (TR-FRET) Binding Assay of NAMPT with PRPP; conditions: 200 μM PRPP and 2.5 mM ATP; 2 nM NAMPT, 2 nM probe, equilibrated 16 hours
Summary of the method: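 Compounds were equilibrated for 16 hours before TR-FRET readout, with substrates present (200 μM PRPP, 2.5 mM ATP) to permit enzymatic modification. Final mix: 2 nM His-tagged NAMPT, 2 nM probe, 1 nM Tb-anti-His antibody, 2% DMSO.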

[1] = target: NAMPT (human, recombinant, C-terminally His-tagged) (Homo sapiens, UniProt P43490); assay: Time-Resolved Fluorescence Resonance Energy Transfer (TR-FRET) Binding Assay of NAMPT; conditions: absence of substrates; 6.8 nM NAMPT, 200 nM probe, equilibrated 3 hours
NAMPT (human, recombinant, C-terminally His-tagged), sequence (P43490 whole entry): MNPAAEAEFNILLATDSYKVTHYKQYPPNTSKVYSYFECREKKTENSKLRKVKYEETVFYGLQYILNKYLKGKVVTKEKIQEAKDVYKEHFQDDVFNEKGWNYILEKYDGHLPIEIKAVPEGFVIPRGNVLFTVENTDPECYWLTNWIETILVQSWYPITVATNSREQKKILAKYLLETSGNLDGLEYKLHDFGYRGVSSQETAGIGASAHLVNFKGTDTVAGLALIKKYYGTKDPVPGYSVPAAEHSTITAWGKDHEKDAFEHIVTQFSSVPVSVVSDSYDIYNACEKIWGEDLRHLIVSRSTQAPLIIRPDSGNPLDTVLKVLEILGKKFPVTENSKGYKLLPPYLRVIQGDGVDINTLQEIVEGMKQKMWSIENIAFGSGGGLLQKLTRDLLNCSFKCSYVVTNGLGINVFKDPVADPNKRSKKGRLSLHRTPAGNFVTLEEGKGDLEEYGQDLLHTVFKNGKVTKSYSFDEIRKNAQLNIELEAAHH
Summary of the method: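 Compounds (typically 11 half-log dilutions, 2% DMSO final) equilibrated 3 h at room temperature with 6.8 nM human C-His NAMPT, 1 nM Tb-anti-His antibody and 200 nM fluorescent competitive probe in pH 7.5 HEPES buffer. IC50 derived by logistic fit of normalized TR-FRET ratio (520/495 nm).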

NAMPT, sequence (P43490 whole entry): as above

IC50 (NAMPT) [nM] | IC50 [1] [nM] | SMILES
0.25 | 2890 | O=C(NCCCn1ccnc1)c1cnc(N(CCc2ccc(Cl)cn2)C(=O)C2CCOC2)s1 (stereo not drawn) [Example 208, 2-{[2-(5-chloropyridin-2-yl)ethyl](tetrahydrofuran-3-ylcarbonyl)amino}-N-[3-(1H-imidazol-1-yl)propyl]-1,3-thiazole-5-carboxamide]
0.813 | 6970 | COCCC(=O)N(CC1CCCO1)c1ncc(C(=O)NCCCn2ccnc2)s1 (stereo not drawn) [Example 178, N-[3-(1H-imidazol-1-yl)propyl]-2-[(3-methoxypropanoyl)(tetrahydrofuran-2-ylmethyl)amino]-1,3-thiazole-5-carboxamide]
217 | 4720 | O=C(NCCCn1ccnc1)c1cnc(N(Cc2ccc(F)cc2)Cc2ccccc2Cl)s1 [Example 16, 2-[(2-chlorobenzyl)(4-fluorobenzyl)amino]-N-[3-(1H-imidazol-1-yl)propyl]-1,3-thiazole-5-carboxamide]
2.08 | 3680 | COCCC(=O)N(Cc1c(F)cccc1F)c1ncc(C(=O)NCCCn2ccnc2)s1 [Example 112, 2-[(2,6-difluorobenzyl)(3-methoxypropanoyl)amino]-N-[3-(1H-imidazol-1-yl)propyl]-1,3-thiazole-5-carboxamide]
0.492 | 9800 | COCCC(=O)N(CCOC(C)C)c1ncc(C(=O)NCCCn2ccnc2)s1 [Example 179, N-[3-(1H-imidazol-1-yl)propyl]-2-{(3-methoxypropanoyl)[2-(propan-2-yloxy)ethyl]amino}-1,3-thiazole-5-carboxamide]
807 | 1720 | CC(C)CCN(Cc1cccc(Cl)c1)c1ncc(C(=O)NCCCn2ccnc2)s1 [Example 58, 2-[(3-chlorobenzyl)(3-methylbutyl)amino]-N-[3-(1H-imidazol-1-yl)propyl]-1,3-thiazole-5-carboxamide]
266 | 8450 | CC(C)(CNC(=O)N(Cc1ccc(C#N)cc1)c1ncc(C(=O)NCCCn2ccnc2)s1)C(=O)O [Example 169, 3-{[(4-cyanobenzyl)(5-{[3-(1H-imidazol-1-yl)propyl]carbamoyl}-1,3-thiazol-2-yl)carbamoyl]amino}-2,2-dimethylpropanoic acid]
583 | > 10000 | N#Cc1ccc(CN(C(=O)NC2CC(C(=O)O)C2)c2ncc(C(=O)NCCCn3ccnc3)s2)cc1 (stereo not drawn) [Example 164, 3-{[(4-cyanobenzyl)(5-{[3-(1H-imidazol-1-yl)propyl]carbamoyl}-1,3-thiazol-2-yl)carbamoyl]amino}cyclobutanecarboxylic acid]
7.77 | > 10000 | O=C(NCCCn1ccnc1)c1cnc(N(Cc2ccc(F)cc2)C(=O)C[n+]2ccccc2)s1 [Example 44, 1-{2-[(4-fluorobenzyl)(5-{[3-(1H-imidazol-1-yl)propyl]carbamoyl}-1,3-thiazol-2-yl)amino]-2-oxoethyl}pyridinium]
320 | 2530 | Cc1nccn1CCCNC(=O)c1cnc(N(Cc2ccc(F)cc2)C(=O)CC(C)C)s1 [Example 53, 2-[(4-fluorobenzyl)(3-methylbutanoyl)amino]-N-[3-(2-methyl-1H-imidazol-1-yl)propyl]-1,3-thiazole-5-carboxamide]
5.37 | > 10000 | NC(=O)C1CCCN(C(=O)N(Cc2ccc(F)cc2)c2ncc(C(=O)NCCCn3ccnc3)s2)C1 (stereo not drawn) [Example 65, N^1-(4-fluorobenzyl)-N^1-(5-{[3-(1H-imidazol-1-yl)propyl]carbamoyl}-1,3-thiazol-2-yl)piperidine-1,3-dicarboxamide]
1.46 | 3730 | O=C(NCCCn1ccnc1)c1cnc(N2CCN(c3ccc(F)cc3)C2=O)s1 [Example 204, 2-[3-(4-fluorophenyl)-2-oxoimidazolidin-1-yl]-N-[3-(1H-imidazol-1-yl)propyl]-1,3-thiazole-5-carboxamide]
1.07 | 1690 | N#Cc1ccc(CCN(C(=O)CC2CCOCC2)c2ncc(C(=O)NCCCn3ccnc3)s2)cc1 [Example 49, 2-{[2-(4-cyanophenyl)ethyl](tetrahydro-2H-pyran-4-ylacetyl)amino}-N-[3-(1H-imidazol-1-yl)propyl]-1,3-thiazole-5-carboxamide]
3.35 | 4190 | COCCC(=O)N(Cc1ccc(Cl)cn1)c1ncc(C(=O)NCCCn2ccnc2)s1 [Example 96, 2-{[(5-chloropyridin-2-yl)methyl](3-methoxypropanoyl)amino}-N-[3-(1H-imidazol-1-yl)propyl]-1,3-thiazole-5-carboxamide]
266 | > 10000 | CC(C)CCN(Cc1ccc(Cl)cc1)c1ncc(C(=O)NCCCn2ccnc2)s1 [Example 59, 2-[(4-chlorobenzyl)(3-methylbutyl)amino]-N-[3-(1H-imidazol-1-yl)propyl]-1,3-thiazole-5-carboxamide]
5.89 | > 10000 | COCCC(=O)N(Cc1cnccc1C)c1ncc(C(=O)NCCCn2ccnc2)s1 [Example 97, N-[3-(1H-imidazol-1-yl)propyl]-2-{(3-methoxypropanoyl)[(4-methylpyridin-3-yl)methyl]amino}-1,3-thiazole-5-carboxamide]
2.31 | 1990 | COCCC(=O)N(Cc1ccc(Cl)cc1)c1ncc(C(=O)NCCCn2ccnc2)s1 [Example 114, 2-[(4-chlorobenzyl)(3-methoxypropanoyl)amino]-N-[3-(1H-imidazol-1-yl)propyl]-1,3-thiazole-5-carboxamide]
4.94 | > 10000 | N#Cc1ccc(CN(C(=O)CC2CCOCC2)c2ncc(C(=O)NCCCn3ccnc3)s2)cc1 [Example 51, 2-[(4-cyanobenzyl)(tetrahydro-2H-pyran-4-ylacetyl)amino]-N-[3-(1H-imidazol-1-yl)propyl]-1,3-thiazole-5-carboxamide]
3.6 | 1420 | COCCC(=O)N(Cc1cnc(C)cn1)c1ncc(C(=O)NCCCn2ccnc2)s1 [Example 115, N-[3-(1H-imidazol-1-yl)propyl]-2-{(3-methoxypropanoyl)[(5-methylpyrazin-2-yl)methyl]amino}-1,3-thiazole-5-carboxamide]
1.35 | 2690 | COCCCN1CCN(CC(=O)N(Cc2ccc(F)cc2)c2ncc(C(=O)NCCCn3ccnc3)s2)CC1 [Example 38, 2-[(4-fluorobenzyl){[4-(3-methoxypropyl)piperazin-1-yl]acetyl}amino]-N-[3-(1H-imidazol-1-yl)propyl]-1,3-thiazole-5-carboxamide]
0.206 | 611 | CC(C)CC(=O)N(CCc1ccc(F)cc1)c1ncc(C(=O)NCCCn2ccnc2)s1 [Example 45, 2-{[2-(4-fluorophenyl)ethyl](3-methylbutanoyl)amino}-N-[3-(1H-imidazol-1-yl)propyl]-1,3-thiazole-5-carboxamide]
0.548 | 1220 | O=C(NCCCn1ccnc1)c1cnc(N(Cc2ccc(F)cc2)C(=O)CC2CCOCC2)s1 [Example 4, 2-[(4-fluorobenzyl)(tetrahydro-2H-pyran-4-ylacetyl)amino]-N-[3-(1H-imidazol-1-yl)propyl]-1,3-thiazole-5-carboxamide]
3.98 | > 10000 | COCCN(C)C(=O)N(Cc1ccc(F)cc1)c1ncc(C(=O)NCCCn2ccnc2)s1 [Example 69, 2-{(4-fluorobenzyl)[(2-methoxyethyl)(methyl)carbamoyl]amino}-N-[3-(1H-imidazol-1-yl)propyl]-1,3-thiazole-5-carboxamide]
0.833 | 7020 | CC1CCN(CC(=O)N(Cc2ccc(F)cc2)c2ncc(C(=O)NCCCn3ccnc3)s2)CC1 [Example 28, 2-{(4-fluorobenzyl)[(4-methylpiperidin-1-yl)acetyl]amino}-N-[3-(1H-imidazol-1-yl)propyl]-1,3-thiazole-5-carboxamide]
0.743 | 4780 | C=C[C@@H](CO)NC(=O)N(Cc1ccc(C#N)cc1)c1ncc(C(=O)NCCCn2ccnc2)s1 [Example 131, 2-[(4-cyanobenzyl){[(2S)-1-hydroxybut-3-en-2-yl]carbamoyl}amino]-N-[3-(1H-imidazol-1-yl)propyl]-1,3-thiazole-5-carboxamide]
3.02 | 1250 | COCCC(=O)N(Cc1ccc(C)cn1)c1ncc(C(=O)NCCCn2ccnc2)s1 [Example 117, N-[3-(1H-imidazol-1-yl)propyl]-2-{(3-methoxypropanoyl)[(5-methylpyridin-2-yl)methyl]amino}-1,3-thiazole-5-carboxamide]
0.998 | 2890 | CCOCCNC(=O)N(Cc1ccc(F)cc1)c1ncc(C(=O)NCCCn2ccnc2)s1 [Example 83, 2-{[(2-ethoxyethyl)carbamoyl](4-fluorobenzyl)amino}-N-[3-(1H-imidazol-1-yl)propyl]-1,3-thiazole-5-carboxamide]
1.61 | 1450 | COCCC(=O)N(CCc1ccccc1F)c1ncc(C(=O)NCCCn2ccnc2)s1 [Example 108, 2-{[2-(2-fluorophenyl)ethyl](3-methoxypropanoyl)amino}-N-[3-(1H-imidazol-1-yl)propyl]-1,3-thiazole-5-carboxamide acetate (1:1)]
4.97 | > 10000 | CC(C)CCN(Cc1ccc(C#N)cc1)c1ncc(C(=O)NCCCn2ccnc2)s1 [Example 60, 2-[(4-cyanobenzyl)(3-methylbutyl)amino]-N-[3-(1H-imidazol-1-yl)propyl]-1,3-thiazole-5-carboxamide]
0.254 | 669 | CC(C)CCN(C(=O)C1CCOC1)c1ncc(C(=O)NCCCn2ccnc2)s1 (stereo not drawn) [Example 155, N-[3-(1H-imidazol-1-yl)propyl]-2-[(3-methylbutyl)(tetrahydrofuran-3-ylcarbonyl)amino]-1,3-thiazole-5-carboxamide]
